pIC50: −log10 of the molar value.
What was measured:
[1] = target: T1, FUT7 (Fucosyltransferase 7) (Homo sapiens, UniProt Q11130); assay: GDP-Glo bioluminescent enzyme assay, dose response with fetuin and GDP-fucose; format: biochemical
T1 sequence (Q11130 1-342): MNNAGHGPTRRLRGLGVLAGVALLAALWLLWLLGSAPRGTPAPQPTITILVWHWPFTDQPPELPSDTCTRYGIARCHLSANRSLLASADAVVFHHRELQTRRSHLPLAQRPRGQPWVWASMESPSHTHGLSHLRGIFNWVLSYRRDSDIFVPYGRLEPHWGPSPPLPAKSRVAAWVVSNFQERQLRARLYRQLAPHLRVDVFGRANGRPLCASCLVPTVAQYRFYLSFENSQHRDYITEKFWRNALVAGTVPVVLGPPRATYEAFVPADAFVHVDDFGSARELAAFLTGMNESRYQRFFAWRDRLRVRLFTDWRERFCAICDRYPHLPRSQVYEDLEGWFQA

[2] = target: T2, OGT (O-GlcNAc Transferase) (Homo sapiens, UniProt O15294); assay: UDP-Glo bioluminescent enzyme assay, dose response with OGT peptide and UDP-GlcNAc; format: biochemical
T2 sequence (O15294 2-236 isoform O15294-4): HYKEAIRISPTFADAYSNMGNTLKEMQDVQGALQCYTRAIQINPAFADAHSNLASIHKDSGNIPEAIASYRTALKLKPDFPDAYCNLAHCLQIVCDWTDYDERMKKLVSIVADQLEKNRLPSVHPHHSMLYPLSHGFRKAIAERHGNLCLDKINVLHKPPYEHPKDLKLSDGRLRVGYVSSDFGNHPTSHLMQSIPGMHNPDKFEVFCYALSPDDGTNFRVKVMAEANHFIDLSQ

| Compound | pIC50 [1] | pIC50 [2] |
| --- | --- | --- |
| O=C(O)c1cc(O)c(O)c(O)c1 [Gallic acid] | 6.22 | – |
| N#Cc1c(SCc2ccc(C(=O)O)cc2)nc2c(c1-c1cccs1)CCCC2 [ST078925] | – | 4.26 |
| O=C(O)C1CC(=O)N(CCC23CC4CC(CC(C4)C2)C3)C(=Nc2ccc(Cl)cc2)S1 (stereo not drawn) [ST045849] | – | 4.24 |
